Patent publication US20090312265A1, “NOVEL ANTIMICROBIAL PEPTIDES AND USE THEREOF” (priority 2006, published 2009)
No end group written: not given here.

Key:
[1] = Liposome leakage assay (carboxyfluorescein release), PC liposomes; settings: scale: Triton X100 = 100% release; for PC + NaCl (CF release, liposome leakage): 10 mM Tris pH 7.4 with additional 150 mM NaCl; for PC − NaCl (CF release, liposome leakage): 10 mM Tris pH 7.4 without NaCl
Procedure: (§1) Dry lipid films were prepared by dissolving either dioleoylphosphatidylcholine (Avanti Polar Lipids, Alabaster, Ala.) (60 mol %) and cholesterol (Sigma, St Louis, Mo.) (40 mol %), or dioleoylphosphatidylcholine (30 mol %), dioleoylphosphatidic acid (Avanti Polar Lipids, Alabaster, Ala.) (30 mol %) and cholesterol (40 mol %) in chloroform, and then removing the solvent by evaporation under vacuum overnight. Subsequently, buffer solution containing 10 mM Tris, pH 7.4, either with or without additional 150 mM NaCl, was added together with 0.1 M carboxyfluorescein (CF) (Sigma, St Louis, Mo.). After hydration, the lipid mixture was subjected to eight freeze-thaw cycles consisting of freezing in liquid nitrogen and heating to 60° C. Unilamellar liposomes with a diameter of about 130 nm (as found with cryo-TEM; results not shown) were generated by multiple extrusions through polycarbonate filters (pore size 100 nm) mounted in a LipoFast miniextruder (Avestin, Ottawa, Canada). Untrapped carboxyfluorescein was then removed by filtration through two subsequent Sephadex G-50 columns with the relevant Tris buffer as eluent. Both extrusion and filtration was performed at 22° C. In the liposome leakage assay, the well lmown self-quenching of CF was used. Thus, at 100 mM CF is self-quenched, and the recorded fluorescence intensity from liposomes with entrapped CF is low. […] The CF release was determined by monitoring the emitted fluorescence at 520 nm from a liposome dispersion (10 mM lipid in 10 mM Tris pH 7.4). An absolute leakage scale is obtained by disrupting the liposomes at the end of the experiment through addition of 0.8 mM Triton X100 (Sigma, St Louis, Mo.), thereby causing 100% release and dequenching of CF. A SPEX-fluorolog 1650 0.22-m double spectrometer (SPEX Industries, Edison, N.J.) was used for the liposome leakage assay (see Table 4).

[2] = Liposome leakage assay (carboxyfluorescein release), PA liposomes; settings: scale: Triton X100 = 100% release; for PA + NaCl (CF release, liposome leakage): 10 mM Tris pH 7.4 with additional 150 mM NaCl; for PA − NaCl (CF release, liposome leakage): 10 mM Tris pH 7.4 without NaCl
Procedure: as §1

bacteria = experiment: Antibacterial activity in vitro; assay type: cell-based
Procedure: Radial diffusion assays (RDA) were performed essentially as described earlier (Lehrer, R. I., Rosenman, M., Harwig, S. S., Jackson, R. & Eisenhauer, P. (1991) Ultrasensitive assays for endogenous antimicrobial polypeptides, J Immunol Methods. 137, 167-73.).
Briefly, bacteria (E. coli, P. aeruginosa, S. aureus, B. subtilis) or fungi (C. albicans) were grown to mid-logarithmic phase in 10 ml of full-strength (3% w/v) trypticase soy broth (TSB) (Becton-Dickinson, Cockeysville, Md.). The microorganisms were washed once with 10 mM Tris, pH 7.4. 4×10^6 bacterial cfu or 1×10^5 fungal cfu was added to 5 ml of the underlay agarose gel, consisting of 0.03% (w/v) TSB, 1% (w/v) low-electroendoosmosistype (Low-EEO) agarose (Sigma, St Louise Mo.) and a final concentration of 0.02% (v/v) Tween 20 (Sigma). The underlay was poured into a Ø 85 mm petri dish. After agarose solidified, 4 mm-diameter wells were punched and 6 μl of test sample was added to each well. Plates were incubated at 37° C. for 3 hours to allow diffusion of the peptides. The underlay gel was then covered with 5 ml of molten overlay (6% TSB and 1% Low-EEO agarose in dH2O). Antimicrobial activity of a peptide is visualized as a clear zone around each well after 18-24 hours of incubation at 37° C. for bacteria and 28° C. for Candida albicans.

[3] = CD-spectroscopy, helix content; assay type: physicochemical; settings: 10 mM Tris, 10 μM peptide, 37° C.; for Helix content, PA: pH 7.4, PA liposome dispersion (100 μM lipid); for Helix content, PC: pH 7.4, PC liposome dispersion (100 μM lipid); for Helix content, Buffer: pH 7.4, buffer
Procedure: The CD spectra of the peptides in solution were measured on a Jasco J-810 Spectropolarimeter (Jasco, U.K.). The measurements were performed at 37° C. in a 10 mm quartz cuvet under stirring and the peptide concentration was 10 μM. The effect of on peptide secondary structure of liposomes at a lipid concentration of 100 μM was monitired in the range 200-250 nm. The only peptide conformations observed under the conditions investigated were α-helix and random coil. The fraction of the peptide in α-helical conformation, Xα, is calculated from
where A is the recorded CD signal at 225 nm, and Aα and Ac are the CD signal at 225 nm for a reference peptide in 100% α-helix and 100% random coil conformation, respectively. 100% α-helix and 100% random coil references were obtained from 0.133 mM (monomer concentration) poly-L-lysine in 0.1 M NaOH and 0.1 M HCl, respectively. To account for the instrumental differences between measurements the background value (detected at 250 nm, where no peptide signal is present) was subtracted. Signals from the bulk solution were also corrected for (see Table 5).

E. coli bacteria = experiment: Antibacterial effect of HB-EGF in vitro (bacterial survival); assay type: cell-based; settings: HB-EGF at 6 μM, 2×10^6 cfu/ml E. coli, 10 mM Tris, pH 7.4
Procedure: The antibacterial effect of HB-EGF (Q99075, SEQ ID NO: 19) was evaluated in vitro. 2×10^6 cfu/ml of E. coli bacteria were incubated in 50 μl with HB-EGF at 6 μM in 10 mM Tris, pH 7.4 buffer (Tris). The difference in bacterial survival was significant for the HB-EGF treated material vs. the control (no HB-EGF present), i.e. HB-EGF does in it self posses an antibacterial effect, although less pronounced than the peptides being derived from it.

Erythrocytes = assay type: cell-based; settings: 1 h
Procedure: EDTA-blood was centrifuged at 800 g for 10 min, whereafter plasma and buffy coat were removed. The erythrocytes were washed three times and resuspended in 5% PBS, pH 7.4. The cells were then incubated with end-over-end rotation for 1 h at 37° C. in the presence of peptides (3-60 μM). 2% Triton X-100 (Sigma-Aldrich) served as positive control. The samples were then centrifuged at 800 g for 10 min. The absorbance of hemoglobin release was measured at λ 540 nm and is in the plot expressed as % of TritonX-100 induced hemolysis (FIG. 5 and table 6). The peptides in table 3A (SEQ ID No. 12-18) were evaluated as described above.

[4] = system: Gram-positive and Gram-negative bacterial, fungal, and viral pathogens; settings: Niyonsaba and Ogawa 2005; cited from earlier work

Substance	PC + NaCl (CF release, liposome leakage) [1]	PC − NaCl (CF release, liposome leakage) [1]	PA + NaCl (CF release, liposome leakage) [2]	PA − NaCl (CF release, liposome leakage) [2]	antibacterial activity in vitro (bacteria)	Helix content, PA [3] [%]	Helix content, PC [3] [%]	Helix content, Buffer [3] [%]	difference in bacterial survival vs. control (E. coli bacteria)	Erythrocytes Hemolysis (%) Mean (Erythrocytes) [%]	antimicrobial activity spectrum [4]
GKRKKKGKGLGKKRDPCLRKYK (listed as Homo sapiens) [GKR22]	4 ± 1	72 ± 8	2 ± 1	42 ± 7	shows antibacterial activity in vitro	10 ± 3	5 ± 2	8 ± 2	–	–	–
GRPRESGKKRKRKRKLKPT (listed as Homo sapiens) [GRP19]	4 ± 1	30 ± 12	5 ± 1	20 ± 2	show antibacterial activity in vitro	8 ± 3	8 ± 4	9 ± 2	–	–	–
HB-EGF: Human heparin-binding EGF-like growth factor (accession code Q99075)	–	–	–	–	–	–	–	–	significant	–	–
KRKKKGKGLGKKRDPCLRKY [KRK20: A]	–	–	–	–	–	–	–	–	–	2.25	–
KRKKKGKGLGKKRLPCLRKY [KRK20: C]	–	–	–	–	–	–	–	–	–	2.31	–
KRKKKGKGLGKKRWPCLRKY [KRK20: G]	–	–	–	–	–	–	–	–	–	2.29	–
KRKKKGKGWGKKRDPCLRKY [KRK20: D]	–	–	–	–	–	–	–	–	–	2.56	–
KRKKKGKGWGKKRLPCLRKY [KRK20: E]	–	–	–	–	–	–	–	–	–	2.73	–
KRKKKGKGWGKKRWPCLRKY [KRK20: F]	–	–	–	–	–	–	–	–	–	3.14	–
KRKRKGKGLGKKKDPCLRKF [KRK20: B]	–	–	–	–	–	–	–	–	–	2.26	–
LKIKTKKVNTADQCANRCTRNKGL (listed as Homo sapiens) [LKI24]	6 ± 3	54 ± 4	2 ± 2	25 ± 4	–	14 ± 4	9 ± 3	13 ± 3	–	–	–
LKKNGSCKRGPRTHYGQKAIL (human growth factor) [LKK21, FGF1_HUMAN aa 126-146]	6 ± 2	26 ± 3	–	4 ± 2	shows antibacterial activity in vitro	10 ± 4	13 ± 5	11 ± 2	–	–	–
LKRTGQYKLGSKTGPGQKAIL (listed as Homo sapiens) [LKR21, FGF2_HUMAN aa 127-147]	–	2 ± 1	–	3 ± 1	–	–	–	–	–	–	–
LLGDFFRKSKEKIGKEFKRIVQRIKDFLRNLVPRTES [LL-37, reference compound]	73 ± 7	100 ± 10	57 ± 6	100 ± 10	–	100 ± 10	100 ± 10	60 ± 10	–	–	broad-spectrum antimicrobial activity
LNGKGAPRRGQKTRRKNTSAH (listed as Homo sapiens) [LNG21]	–	12 ± 2	–	9 ± 5	–	–	–	–	–	–	–
LNQKGIPVRGKKTKKEQKTAH (listed as Homo sapiens) [LNQ21, FGF7_HUMAN aa 167-187]	–	2 ± 1	–	10 ± 1	–	–	–	–	–	–	–
LRPVQVRKIEIVRRKPIFKKATVT (LRPVQVRKIEIVRKKPIFKKATVT; listed as Homo sapiens) [LRP24]	4 ± 4	33 ± 11	6 ± 3	44 ± 10	show antibacterial activity in vitro	15 ± 3	10 ± 4	13 ± 3	–	–	–
PKRKKKGGKNGKNRRNRKKKN (listed as Homo sapiens) [PKR21]	6 ± 1	38 ± 3	–	13 ± 8	shows antibacterial activity in vitro	9 ± 4	9 ± 3	10 ± 2	–	–	–
QRAKTPQTRVTIRTVRVRRPP (listed as Homo sapiens) [QRA21]	–	10 ± 1	–	0 ± 1	show antibacterial activity in vitro	–	–	–	–	–	–
RVRRPPKGKHRKFHTHDKTA (RVRRPPKGKHRKFKHTHDKTA; listed as Homo sapiens) [RVR21]	6 ± 1	55 ± 2	8 ± 2	18 ± 8	show antibacterial activity in vitro	6 ± 3	11 ± 4	8 ± 4	–	–	–
